The values below come from the METLIN SMRT retention time set (Domingo-Almenara et al. 2019).

The data set can be described thus: gradient 5% acetonitrile 3 min, to 50% in 2 min, to 85% in 15 min, held 3 min, 100 µL/min. To be noted: column: Zorbax Extend-C18 2.1 x 50 mm; eluents: water / acetonitrile, 0.1% formic acid. In outline: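 The system's dead and dwell volumes were 40 μL and 900 μL, with a Zorbax Extend-C18 column (2.1 × 50 mm, 1.8 μm) run at 100 μL/min in water and acetonitrile containing 0.1% formic acid each. Pure standards were analyzed in mixtures of ~100 molecules by HPLC–quadrupole time-of-flight mass spectrometry in positive and negative ionization mode. Retention time was assigned from computationally picked, manually inspected adduct peaks.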
Take `Cc1ccc(S(=O)(=O)Nc2ccc3c(c2)CCC(=O)N3CC(C)C)cc1`: the RP-LC retention time was 887 s.

As for `O=C(CCc1ccccc1)N1CCN(c2cc(-c3cccs3)[nH]n2)CC1`, the RP-LC retention time amounted to 808 s.

`CCc1cc(-c2csc(S(=O)(=O)Nc3ccc(C(C)C)cc3)c2)on1` had an RP-LC retention time of 1100 s.

For `CC(=O)N1CCC(c2nc(-c3ccc4oc(-c5ccccc5)nc4c3)no2)CC1`, the RP-LC retention time turned out to be 987 s.

`CCCn1nc(-c2nc(-c3cccc(Cl)c3)no2)ccc1=O` registered an RP-LC retention time of 1150 s.

In turn, `Cc1[nH]c(C(=O)N2CCN(c3ccccc3F)CC2)c(C)c1S(=O)(=O)N1CCOCC1` yielded an RP-LC retention time of 793 s.

In the case of `COc1ccc(NC(=O)c2[nH]c3cc(C)sc3c2CN2CCOCC2)cc1`, the RP-LC retention time is 655 s.

Compound `COCCNC(=O)CN1c2ccccc2NC2=C(C(=O)CC(C)(C)C2)C1c1ccc(OC)cc1` (stereo not given) gave an RP-LC retention time of 743 s.

Compound `O=C(NCCCc1ccccc1)c1nnc(-c2ccc(S(=O)(=O)N3CCCCC3)cc2)o1` gave an RP-LC retention time of 1070 s.

Regarding `O=C(CN1C(=O)NC(c2ccc(Cl)cc2)C2=C1COC2=O)NCc1ccc(F)cc1` (stereo not given), the RP-LC retention time came to 771 s.

With `COc1ccc(C2(C(=O)NCCC3CCN(C(=O)Nc4ccccc4F)CC3)CC2)cc1`, the RP-LC retention time was found to be 837 s.

Regarding `CC(=O)Nc1cc([N+](=O)[O-])c(N(C)S(=O)(=O)c2ccccc2)c2ccccc12`, the RP-LC retention time was determined as 781 s.

In turn, `COc1ccc(CNC(=O)c2sc(-c3cn(C(C)C)c4ncccc34)nc2C)cc1` returned an RP-LC retention time of 1030 s.

`CCc1ccccc1NC(=O)c1cc(CC)n2nccc2n1` gave an RP-LC retention time of 1150 s.

In the case of `CCCS(=O)(=O)N1CCC2(CC1)C(OC)CN2c1cccc(F)c1` (stereo not given), the RP-LC retention time was 1040 s.

`O=C(CSc1ccc(-n2cnc(-c3ccccc3)c2)nn1)Nc1ccc(F)cc1F`: the RP-LC retention time came out at 816 s.

Turning to `NC(=O)C1CCN(c2ccc3cccc(OCc4ccccc4Cl)c3n2)CC1`, the RP-LC retention time was found to be 593 s.

The compound `Cc1nc(-c2ccc3c(c2)CCN3C(=O)C2CCOC2)cs1` (stereo not given) showed an RP-LC retention time of 760 s.

The compound `CCOC(=O)c1cnc2c(C)c(Cl)ccc2c1NCCN(C)C` came in with an RP-LC retention time of 562 s.

On to `CCOC(=O)Oc1ccc2c(=O)c(Oc3cccc(OC)c3)coc2c1`, for which the RP-LC retention time came out at 928 s.

Regarding `COC(=O)c1nnc2c(-c3ccccc3OC)c(C)nn2c1C`, the RP-LC retention time was 869 s.

The compound `CCC(C)NC(=O)c1ccc(-c2nnc3ccc(NC(=O)C4CC4)cn23)cc1` (stereo not given) registered an RP-LC retention time of 718 s.

`Cn1c(=O)c(C(=O)N2CCCCC2)nc2cccnc21` came in with an RP-LC retention time of 648 s.

Consider `Cc1ccc(CNC(=O)Cc2csc3nc(-c4ccc(C)c(C)c4)cn23)cc1`, for which the RP-LC retention time is 896 s.

In the case of `Cc1cccc(CNC(=O)c2nnc(-c3ccc(S(=O)(=O)N(C)C)cc3)o2)c1`, the RP-LC retention time came out at 894 s.

Take `COc1ccccc1OCc1nn2c(CSc3ccccc3)nnc2s1`: the RP-LC retention time amounted to 882 s.

Regarding `Cc1cc(NC(=O)c2ccc(S(=O)(=O)Nc3ccc4c(c3)OCO4)o2)no1`, the RP-LC retention time worked out at 737 s.

`CCOc1nccnc1NC1CCN(C(=O)c2ccco2)CC1` gave an RP-LC retention time of 585 s.

In the case of `CS(=O)(=O)N1CCC(C(=O)Nc2ccc(Cl)c(C(F)(F)F)c2)Oc2ccccc21` (stereo not given), the RP-LC retention time was found to be 1020 s.

Compound `Cc1ccc(-c2noc(C3CC3)n2)cc1S(=O)(=O)N1CCC(C(=O)NC2CC2)CC1` had an RP-LC retention time of 836 s.

`CCOc1nn(CC)cc1C(=O)NCCc1c[nH]c2ccccc12` displayed an RP-LC retention time of 736 s.

`COc1ccc(-c2ncc3c(n2)CCN(C(=O)c2ccc(Br)o2)C3)cc1` gave an RP-LC retention time of 946 s.

As for `CC(C)(C)N(C(=O)c1ccccc1[N+](=O)[O-])C(=O)N1CCCCC1`, the RP-LC retention time amounted to 828 s.

The compound `COC(=O)c1ccc(C(=O)NCC2CCN(S(=O)(=O)C3CC3)CC2)cc1` returned an RP-LC retention time of 732 s.

`CC(C)Cc1ccc(S(=O)(=O)N(C)CC2CCOCC2)cc1` showed an RP-LC retention time of 1010 s.

Consider `CCOc1ccc(CCNC(=O)C2CCCN(C(=O)c3cc(C)cc(C)c3)C2)cc1OCC` (stereo not given), for which the RP-LC retention time is 920 s.

`COc1cc(OC)c(OC)cc1CN1CC[C@]2(CO)CN(Cc3ccccc3)C[C@@H]2C1`: the RP-LC retention time is 597 s.

Take `Cc1ccc(CSc2nccc3c2ccn3CC(=O)NCc2cccnc2)cc1`: the RP-LC retention time turned out to be 823 s.

`Cc1cccc(-c2nc3ccccn3c2NC(=O)NCc2ccccc2)c1` returned an RP-LC retention time of 656 s.

In turn, `CN1CCN(c2nc3ccc(NC(=O)C4CC(=O)N(c5ccccc5)C4)cc3s2)CC1` (stereo not given) had an RP-LC retention time of 561 s.

For the compound `Fc1cc(F)cc(Cc2nc3nccc(-c4ccccc4)n3n2)c1`, the RP-LC retention time was 926 s.

Consider `Cc1cc(F)ccc1NS(=O)(=O)c1cc(-c2cc(C(F)(F)F)on2)sc1C`, for which the RP-LC retention time stood at 1160 s.

For the compound `CCN1C(=O)C2CC3(CCN(Cc4ccc5cc[nH]c5c4)CC3)CN2C1=O` (stereo not given), the RP-LC retention time stood at 621 s.

Regarding `COc1ccc(N2CCN(c3cc(SCC(=O)Nc4c(C)cc(C)cc4C)ncn3)CC2)cc1`, the RP-LC retention time is 983 s.

Compound `Cc1ccc(C)c(N2CCN(C(=O)c3c(C)sc4ccn(C)c(=O)c34)CC2)c1` showed an RP-LC retention time of 946 s.

As to `Cc1cc(=O)n(CC(=O)N2CCN(c3ccc(-c4ccccn4)nn3)CC2)cn1`, the RP-LC retention time came out at 531 s.

Compound `O=C(NCCc1ccncc1)C1CN(C(=O)c2ccncc2)CC12CCCCC2` (stereo not given) showed an RP-LC retention time of 551 s.

In turn, `O=C(NCC1CCN(Cc2ccsc2)CC1)Nc1ccc2c(c1)OCO2` yielded an RP-LC retention time of 554 s.

Regarding `CCCN(C(=O)c1ccccc1C)c1nc(-c2ccccc2)cs1`, the RP-LC retention time is 1320 s.

Consider `COCCNC(=O)NCC1(c2ccccc2)CCOCC1`, for which the RP-LC retention time worked out at 615 s.

In the case of `CCc1noc(NC(C)=O)c1-c1ccc(OC)c(S(=O)(=O)NCc2ccc(F)cc2)c1`, the RP-LC retention time is 794 s.

Compound `CCOC(=O)c1csc(NC(=O)Cc2ccc(S(=O)(=O)CC)cc2)n1` gave an RP-LC retention time of 681 s.

For the compound `CCn1c(C(=O)NCc2ccc(OC)cc2)cc2sc(Cl)cc21`, the RP-LC retention time stood at 1130 s.

`Cc1ccc(NS(=O)(=O)c2cc3c(s2)CCN(C(=O)C2CCC2)C3)cc1` showed an RP-LC retention time of 864 s.

In the case of `Cc1cccc(NC(=O)C2CN(C(=O)c3cc(C)on3)C2)n1`, the RP-LC retention time stood at 601 s.

Turning to `COC(=O)c1cc(S(=O)(=O)N2CCCC2C(=O)Nc2cccc(SC)c2)cn1C` (stereo not given), the RP-LC retention time was determined as 909 s.

`NC(=O)[C@@H]1C[C@H](Oc2cccnc2)CN1C(=O)CCc1nc2ccccc2s1` registered an RP-LC retention time of 589 s.

`Cc1cc(C)cc(NC(=O)N2CCCC(Cn3c(C)nc4cccnc43)C2)c1` (stereo not given) gave an RP-LC retention time of 671 s.

Regarding `Cc1cc(NC(=O)c2cnccn2)sn1`, the RP-LC retention time came to 606 s.

On to `COc1ccc(CNC(=O)N2C[C@H](c3nc(-c4ccncc4)no3)[C@@H](C)C2)cc1`, for which the RP-LC retention time worked out at 732 s.
